These are literature values, as cited in patent publication US8512972B2, “Crystal of hypoxia inducible factor 1 alpha prolyl hydroxylase” (Akebia Therapeutics, Inc., priority 2006, dated 2013).

Data set [1] relates to HIF protein in HT1080, PC12W and 3T3L1 cells. The settings on record: HT1080, PC12W and 3T3L1 cells in culture.
A further data set has as its system HIF protein. The following applies: administered to rats.
For data set [2], the system named is GLUT1, heme oxygenase and nitric oxide synthase. The settings on record: neonatal rat cardiomyocytes.

Turning to `N[C@@H](Cn1ccc(=O)c(O)c1)C(=O)O` [L-mimosine], the “induction of HIF protein” value in data set [1] is “induce HIF protein”. Moreover, in the data set with HIF protein, the “HIF protein expression in the kidney” value is given as “induced HIF protein expression”.

With `COC(=O)CNC(=O)C(=O)OC` [dimethyloxalylglycine], the “expression of GLUT1, heme oxygenase and nitric oxide synthase” value in data set [2] is “induced the expression”.

For `CCOC(=O)c1ccc(O)c(O)c1` [ethyl-3,4 dihydroxybenzoate], in data set [1], the “induction of HIF protein” value is given as “induce HIF protein”. In data set [2], the “expression of GLUT1, heme oxygenase and nitric oxide synthase” value is “induced the expression”.
